From patent US20180140579A1, “SACUBITRIL AND VALSARTAN FOR TREATING METABOLIC DISEASE” (NOVARTIS AG, priority 2015, published 2018)
Values joined by “and” are separate entries in the source; they are usually repeats but may differ in a detail not shown here. Equal values may be shown once.

Columns and labels:
[1] = test system: patients with mild-to-moderate hypertension and abdominal adiposity; assay: Blood pressure monitoring (mean seated BP); assay type: in vivo, human; conditions: Day 57 vs baseline; LCZ696 400 mg QD or amlodipine 10 mg QD
Text: Seating BP was monitored at screening and throughout the study using the same equipment. During the home stay period, patients were given a home measurement device and instructed to monitor BP twice weekly at approximately the same time each morning (7-9 AM).

[2] = test system: patients with mild-to-moderate hypertension and abdominal adiposity; assay: Abdominal subcutaneous adipose tissue microdialysis (local lipolysis); assay type: in vivo, human; conditions: for Glucose in adipose tissue microdialysate, adjusted geometric mean ratio Day 57 vs Day 1 / Lactate in adipose tissue microdialysate, adjusted geometric mean ratio Day 57 vs Day 1 / Glycerol (free) in adipose tissue microdialysate, adjusted geometric mean ratio Day 57 vs Day 1 / interstitial glycerol levels at week 8 (subcutaneous adipose tissue lipolysis at rest): at rest; for Glycerol (free) in adipose tissue microdialysate, adjusted geometric mean ratio Day 57 vs Day 1: 8 weeks treatment; for interstitial glycerol levels at week 8 (subcutaneous adipose tissue lipolysis at rest): p=0.003 between groups
Protocol: Assessment of lipolysis at rest was performed on Day 1 prior to first dosage and on Day 57. Abdominal subcutaneous adipose tissue lipolysis was assessed by microdialysis in the fasting condition. […] Microdialysate samples for measurement of the analytes were collected at 30 minutes and 45 minutes in the flow calibration phase. Glycerol (an indicator of local lipolysis), glucose, and lactate concentrations were measured in the microdialysate, reflecting the interstitial concentrations in the adipose tissue. The ethanol ratio (ratio of ethanol concentration in dialysate to ethanol concentration in perfusate) was measured as an indicator of adipose tissue blood flow. For abdominal subcutaneous adipose tissue microdialysate data (ethanol ratio, dialysate lactate, dialysate glucose, and plasma glycerol, glycerol, NEFA, glucose, insulin, adrenalin, and noradrenalin) at rest, data was analyzed using repeated measures analysis on log transformed values with treatment, visit, time and treatment*visit*time interaction as fixed effects.

[3] = test system: patients with mild-to-moderate hypertension and abdominal adiposity; assay: Safety assessments (adverse events); assay type: in vivo, human; conditions: for Discontinuations due to AEs: LCZ696 N = 50, amlodipine N = 48
Protocol: Safety assessments included adverse events (AEs) and serious adverse events (SAEs) and were conducted throughout the study by regular monitoring of hematology, blood chemistry and urine analysis as well as assessments of vital signs (BP and pulse measurements), ECG, physical condition and body weight. The pharmacodynamics (PD) analysis set included all patients with available PD data and no protocol deviations with relevant impact on PD data. The safety analysis set included all patients who received any of the study drugs.

[4] = test system: patients with mild-to-moderate hypertension and abdominal adiposity; assay: Hyperinsulinemic-euglycemic glucose clamp (insulin sensitivity), clinical study NCT01631864; assay type: in vivo, human; conditions: for Glucose infusion rate by body weight (Mbw), Day 56, adjusted mean / Insulin sensitivity index, Day 56, adjusted mean: Day 56 (week 8)
Protocol: (§1) At baseline and week 8, peripheral insulin sensitivity (hyperinsulinemic-euglycemic glucose clamp), abdominal subcutaneous adipose tissue lipolysis (microdialysis), whole-body lipolysis (glycerol tracer kinetics), energy expenditure and substrate oxidation (indirect calorimetry) were determined.
Patients were also stratified into 4 groups based on the baseline Homeostasis Model Assessment of Insulin Resistance (HOMA-IR) (<2.5 and ≥2.5) and use of statin therapy within 8 weeks prior to randomization.
The HEGC assessment was performed on Day −1 (baseline) and on Day 56 under fasting conditions. A dorsal hand vein was catheterized and kept warm for arterialized blood sampling and the contralateral arm was cathetered for the infusion of glucose and insulin. […] Blood samples to determine glucose levels during the HEGC were collected continuously (automated clamp) or at approximately 5-min intervals (manual clamp). The last 30 minutes (minutes 90-120) of the clamp were considered as the steady state period and the mean glucose infusion rate was calculated for this time period.
The insulin sensitivity index (SI) was calculated from steady-state glucose infusion rates, and plasma insulin and glucose concentrations at steady-state (SI: Glucose infusion rate/[plasma glucose×plasma insulin], μg/kg*min/[mmol/L*pmol/L]). Furthermore whole-body glucose disposal rate (M, mg/min) was calculated from the mean glucose infusion rate at steady state to assess peripheral insulin sensitivity. Finally, the metabolic clearance rate (MCR) was calculated from M-value and the mean blood glucose concentration (BG) at steady-state (MCR: M/BG, min*mmol). The glucose disposal rate was also expressed per unit of insulin at steady-state, calculated from M-value and plasma insulin concentrations (M/l, U/min).
Differences between treatments for change in SI from baseline were analyzed as above.

[5] = test system: patients with mild-to-moderate hypertension and abdominal adiposity; assay: Energy expenditure and substrate oxidation by indirect calorimetry; assay type: in vivo, human; conditions: LCZ696 400 mg QD or amlodipine 10 mg QD; for Respiratory quotient (carbon dioxide to oxygen ratio), Day 57 adjusted mean (95% CI): Day 57, at rest
Protocol: as §1
Energy expenditure and substrate oxidation were assessed in parallel by indirect calorimetry using a ventilated hood system. The ventilated hood measurements were recorded for 30 minutes in the resting state (during the flow calibration phase).

[6] = test system: patients with mild-to-moderate hypertension and abdominal adiposity; assay: Abdominal subcutaneous adipose tissue microdialysis (local lipolysis); assay type: in vivo, human
[7] = test system: patients with impaired glucose tolerance and cardiovascular disease or risk factors; conditions: valsartan for 5 years, along with lifestyle modification; cited from earlier work
[8] = safety analysis set, 8-week treatment
[9] = LCZ696 400 mg QD or amlodipine 10 mg QD
[10] = LCZ696 400 mg QD or amlodipine 10 mg QD, listed as AML
[11] = baseline to Day 56, LCZ696 400 mg QD or amlodipine 10 mg QD, 8 weeks
[12] = 15 min exercise, p=0.014 between groups
[13] = 30 min exercise, p=0.010 between groups

Row | Structure (SMILES) | mean reduction in msDBP (mean seated diastolic blood pressure) [1] [mmHg] | mean reduction in msSBP (mean seated systolic blood pressure) [1] [mmHg] | Glucose in adipose tissue microdialysate, adjusted geometric mean ratio Day 57 vs Day 1 ([2]; 30 + 45 min combined, (95% CI)) | Lactate in adipose tissue microdialysate, adjusted geometric mean ratio Day 57 vs Day 1 ([2]; 30 + 45 min combined, (95% CI)) | Glycerol (free) in adipose tissue microdialysate, adjusted geometric mean ratio Day 57 vs Day 1 ([2]; 30 min time point, (95% CI)) | Glucose in adipose tissue microdialysate, adjusted geometric mean ratio Day 57 vs Day 1 ([2]; 30 min time point, (95% CI)) | Lactate in adipose tissue microdialysate, adjusted geometric mean ratio Day 57 vs Day 1 ([2]; 30 min time point, (95% CI)) | Glycerol (free) in adipose tissue microdialysate, adjusted geometric mean ratio Day 57 vs Day 1 ([2]; 45 min time point, (95% CI)) | Glucose in adipose tissue microdialysate, adjusted geometric mean ratio Day 57 vs Day 1 ([2]; 45 min time point, (95% CI)) | Lactate in adipose tissue microdialysate, adjusted geometric mean ratio Day 57 vs Day 1 ([2]; 45 min time point, (95% CI)) | interstitial glycerol levels at week 8 (subcutaneous adipose tissue lipolysis at rest) [2] [µmol/L] | Discontinuations due to AEs ([3]; 8-week treatment) | AEs suspected to be study drug related [3, 8] [%] | Peripheral edema reported [3, 8] | overall incidence of AEs [3, 8] [%] | Glucose infusion rate by body weight (Mbw), Day 56, adjusted mean [4, 9] | Insulin sensitivity index, Day 56, adjusted mean [4, 9] | Respiratory quotient (carbon dioxide to oxygen ratio), Day 57 adjusted mean (95% CI) [5] | Resting energy expenditure, Day 57 adjusted mean (95% CI) [5] | microdialysate glycerol at week 8 [6, 12] [µmol/L] | other results
1 | CCOC(=O)C1=C(COCCN)NC(C)=C(C(=O)OC)C1c1ccccc1Cl (stereo not drawn) [Amlodipine, reference compound] | −10.0±7.8 | −12.4±14.7 | 0.99 (0.85; 1.16) | 0.90 (0.70; 1.16) | 0.87 (0.76; 0.99) | 1.00 (0.85; 1.16) | 0.91 (0.69; 1.19) | 0.85 (0.74; 0.98) | 0.98 (0.83; 1.16) | 0.90 (0.70; 1.16) | 63.99 | three | 46 | 16 patients | 77.1 | 3.87 mg/(min * kg) | 1.75 μg/kg * min/(mmol/L * pmol/L) | 0.77 (0.746; 0.804) | 1991.4 (1904.82; 2078.01) kcal | 128.8 | Glycerol (free) in adipose tissue microdialysate, adjusted geometric mean ratio Day 57 vs Day 1 ([2]; 30 + 45 min time points combined, (95% CI)): 0.86 (0.75; 0.97); Glucose infusion rate by body weight (Mbw), Day 56, adjusted mean [4, 10]: 3.88 mg/(min * kg); Insulin sensitivity index, Day 56, adjusted mean [4, 10]: 1.76 μg/kg * min/(mmol/L * pmol/L); Glucose infusion rate by body weight (Mbw), adjusted mean change from baseline [4, 11]: 0.03 mg/(min * kg); Insulin sensitivity index, adjusted mean change from baseline [4, 11]: 0.065 μg/kg * min/(mmol/L * pmol/L); Insulin sensitivity index, adjusted mean change from baseline ([4]; baseline to Day 56, LCZ696 400 mg QD or amlodipine 10 mg QD, 8 weeks, listed as amlodipine): +0.065 μg/kg * min/(mmol/L * pmol/L); microdialysate glycerol at week 8 [6, 13]: 149.19 µmol/L
2 | CCCCC(=O)N(Cc1ccc(-c2ccccc2-c2nn[n-]n2)cc1)C(C(=O)[O-])C(C)C.CCOC(=O)C(C)CC(Cc1ccc(-c2ccccc2)cc1)NC(=O)CCC(=O)[O-].[Na+].[Na+].[Na+] [LCZ696, trisodium [3-((1S,3R)-1-biphenyl-4-ylmethyl-3-ethoxycarbonyl-1-butylcarbamoyl)propionate-(S)-3′-methyl-2′-(pentanoyl{2″-(tetrazol-5-ylate)biphenyl-4′-ylmethyl}amino)butyrate] hemipentahydrate] | −12.4±9.1 | −21.0±16.1 | 1.02 (0.88; 1.18) | 0.84 (0.66; 1.06) | 1.02 (0.90; 1.16) | 1.03 (0.86; 1.20) | 0.81 (0.63; 1.04) | 1.07 (0.94; 1.22) | 1.01 (0.86; 1.18) | 0.86 (0.68; 1.09) | 80.53 | two | 24 | one | 60.0 | 4.49 mg/(min * kg) | 1.88 μg/kg * min/(mmol/L * pmol/L) and 1.86 μg/kg * min/(mmol/L * pmol/L) | 0.78 (0.760; 0.814) | 1960.1 (1879.42; 2040.90) kcal | 153.1 | Glucose, Treatment differences, ratio of GMR (LCZ696 vs amlodipine) ([2]; 30 + 45 min combined, (95% CI)): 1.03 (0.83; 1.27); Lactate, Treatment differences, ratio of GMR (LCZ696 vs amlodipine) ([2]; 30 + 45 min combined, (95% CI)): 0.93 (0.65; 1.31); Glucose, Treatment differences, ratio of GMR (LCZ696 vs amlodipine) ([2]; 30 min time point, (95% CI)): 1.03 (0.82; 1.29); Glycerol (free), Treatment differences, ratio of GMR (LCZ696 vs amlodipine) ([2]; 30 min time point, (95% CI)): 1.18 (0.96; 1.43); Lactate, Treatment differences, ratio of GMR (LCZ696 vs amlodipine) ([2]; 30 min time point, (95% CI)): 0.89 (0.62; 1.29); Glucose, Treatment differences, ratio of GMR (LCZ696 vs amlodipine) ([2]; 45 min time point, (95% CI)): 1.03 (0.82; 1.29); Lactate, Treatment differences, ratio of GMR (LCZ696 vs amlodipine) ([2]; 45 min time point, (95% CI)): 0.96 (0.68; 1.36); change in ethanol ratio (indicator of adipose tissue blood flow), between treatment groups ([2]; LCZ696 vs amlodipine, any time point except 45 minute time point in the LCZ696 group (small, not considered relevant)): No significant differences; mild orthostatic hypertension reported ([3]; both resolved by the end of the study, suspected to be related to study drug): Two; Pruritus reported [3, 8]: five; Metabolic clearance rate, Day 56, adjusted mean ([4]; Day 56, LCZ696 400 mg QD or amlodipine 10 mg QD): 79.07 mmol·min; Insulin sensitivity index, Treatment Difference (LCZ696-Amlodipine) ([4]; difference in adjusted mean change from baseline to Day 56 (95% CI), not statistically significant): 0.128 (−0.155; 0.410) μg/kg * min/(mmol/L * pmol/L); Glucose infusion rate by body weight (Mbw), Treatment Difference (LCZ696-Amlodipine) ([4]; difference in adjusted mean change from baseline to Day 56 (95% CI), p = 0.016): 0.61 (0.12; 1.11) mg/(min * kg); Metabolic clearance rate, Treatment Difference (LCZ696-Amlodipine) ([4]; difference in adjusted mean change from baseline to Day 56 (95% CI), p = 0.0312): 9.66 (0.89; 18.42) min * mmol; microdialysate glycerol at week 8 [6, 13]: 187.63 µmol/L
3 | CCCCC(=O)N(Cc1ccc(-c2ccccc2-c2nnn[nH]2)cc1)[C@H](C(=O)O)C(C)C [valsartan, S—N-valeryl-N-{[2′-(1H-tetrazole-5-yl)-biphenyl-4-yl]-methyl}-valine] |  |  |  |  |  |  |  |  |  |  |  |  |  |  |  |  |  |  |  |  | relative reduction in the incidence of diabetes [7]: 14%
